Molecular target: XIAP BIR-3 and cIAP-1 BIR-3 (lower Kd of the two reported)
Test: Fluorescence polarization binding to IAP-BIR3 (competition with AbuRPF-K(5-Fam)-NH2)
Details: lower of the Kd for XIAP BIR-3 and cIAP-1 BIR-3
Description: The binding affinities of the compounds listed in Table 1 to an IAP were determined substantially as described by Nikolovska-Coleska, Z. et. al. (Analytical Biochemistry (2004), vol. 332:261-273) using a variety of fluorogenic substrates and is reported as a Kd value. Briefly, various concentrations of IAP antagonists were mixed with 5 nM fluorescently labeled peptide (AbuRPF-K(5-Fam)-NH2) and 40 nM of an IAP-BIR3 for 15 min at RT in […] of 0.1M Potassium Phosphate buffer, pH 7.5 containing […] bovine g-globulin. Following incubation, the polarization values (mP) were measured on a Victor2V using a 485 nm excitation filter and a 520 nm emission filter. IC50 values were determined from the plot using nonlinear least-squares analysis using GraphPad Prism. […] The reported Kd values are the lower of the Kd for XIAP BIR-3 and cIAP-1 BIR-3.
The following compound of the invention was also made and tested. The reported Kd value is the lower of the Kd for XIAP BIR-3 and cIAP-1 BIR-3.

Row | Kd (Table 1) | Kd (Table 4) | SMILES
1 | < 100 nM |  | CNC(C)C(=O)NC(C(=O)N1CCC(O)C1Cc1c(-c2[nH]c3cc(F)ccc3c2CC2C(O)CCN2C(=O)C(NC(=O)C(C)NC)C(C)OC)[nH]c2cc(F)ccc12)C(C)OC (centres unmarked) [A]
2 | < 100 nM |  | CNC(CO)C(=O)NC(C(=O)N1CCC(O)C1Cc1c(-c2[nH]c3cc(F)ccc3c2CC2C(O)CCN2C(=O)C(NC(=O)C(CO)NC)C(C)OC)[nH]c2cc(F)ccc12)C(C)OC (centres unmarked) [B]
3 | < 100 nM |  | CNC(C)C(=O)NC(C(=O)N1CCC(O)C1Cc1c(-c2[nH]c3cc(F)ccc3c2CC2C(O)CCN2C(=O)C(NC(=O)C(C)NC)C(C)(C)C)[nH]c2cc(F)ccc12)C(C)(C)C (centres unmarked) [C]
4 | < 100 nM |  | CCC(NC)C(=O)NC(C(=O)N1CCC(O)C1Cc1c(-c2[nH]c3cc(F)ccc3c2CC2C(O)CCN2C(=O)C(NC(=O)C(CC)NC)C(C)(C)C)[nH]c2cc(F)ccc12)C(C)(C)C (centres unmarked) [D]
5 | < 100 nM |  | CCNC(C)C(=O)NC(C(=O)N1CCC(O)C1Cc1c(-c2[nH]c3cc(F)ccc3c2CC2C(O)CCN2C(=O)C(NC(=O)C(C)NCC)C(C)OC)[nH]c2cc(F)ccc12)C(C)OC (centres unmarked) [E]
6 | < 100 nM |  | CCC(NC)C(=O)NC(C(=O)N1CCC(O)C1Cc1c(-c2[nH]c3cc(F)ccc3c2CC2C(O)CCN2C(=O)C(NC(=O)C(CC)NC)C(C)OC)[nH]c2cc(F)ccc12)C(C)OC (centres unmarked) [F]
7 | < 100 nM |  | CNC(C)C(=O)NC(C(=O)N1CCC(OC)C1Cc1c(-c2[nH]c3cc(F)ccc3c2CC2C(OC)CCN2C(=O)C(NC(=O)C(C)NC)C(C)OC)[nH]c2cc(F)ccc12)C(C)OC (centres unmarked) [G]
8 | < 100 nM |  | CCC(NC)C(=O)NC(C(=O)N1CCC(OC)C1Cc1c(-c2[nH]c3cc(F)ccc3c2CC2C(OC)CCN2C(=O)C(NC(=O)C(CC)NC)C(C)OC)[nH]c2cc(F)ccc12)C(C)OC (centres unmarked) [H]
9 | < 100 nM |  | CNC(C)C(=O)NC(C(=O)N1CCC(OC)C1Cc1c(-c2[nH]c3cc(F)ccc3c2CC2C(OC)CCN2C(=O)C(NC(=O)C(C)NC)C(C)(C)C)[nH]c2cc(F)ccc12)C(C)(C)C (centres unmarked) [I]
10 | 100 to 1000 nM |  | CCC(NC)C(=O)NC(C(=O)N1CCC(OC)C1Cc1c(-c2[nH]c3cc(F)ccc3c2CC2C(OC)CCN2C(=O)C(NC(=O)C(CC)NC)C(C)(C)C)[nH]c2cc(F)ccc12)C(C)(C)C (centres unmarked) [J]
11 | < 100 nM |  | CCNC(C)C(=O)NC(C(=O)N1CCC(OC)C1Cc1c(-c2[nH]c3cc(F)ccc3c2CC2C(OC)CCN2C(=O)C(NC(=O)C(C)NCC)C(C)OC)[nH]c2cc(F)ccc12)C(C)OC (centres unmarked) [K]
12 | < 100 nM |  | CCNC(C)C(=O)NC(C(=O)N1CCC(OC)C1Cc1c(-c2[nH]c3cc(F)ccc3c2CC2C(OC)CCN2C(=O)C(NC(=O)C(C)NCC)C(C)(C)C)[nH]c2cc(F)ccc12)C(C)(C)C (centres unmarked) [L]
13 | < 100 nM |  | CNC(C)C(=O)NC(C(=O)N1CCC(C)C1Cc1c(-c2[nH]c3cc(F)ccc3c2CC2C(C)CCN2C(=O)C(NC(=O)C(C)NC)C(C)OC)[nH]c2cc(F)ccc12)C(C)OC (centres unmarked) [M]
14 |  | 100 to 1000 nM | CNC(C)(C)C(=O)NC(C(=O)N1CC(O)CC1Cc1c(-c2[nH]c3cc(F)ccc3c2CC2CC(O)CN2C(=O)C(NC(=O)C(C)(C)NC)C(C)OC)[nH]c2cc(F)ccc12)C(C)OC (centres unmarked) [N]

Source: US20110305777A1, “DIMERIC IAP ANTAGONISTS” (Tetralogic Pharmaceuticals Corporation, priority 2006, published 2011)
